Data taken from PMC12018053 (Biochemistry and Biophysics Reports, 2025).
pIC50: −log10 of the molar value. Values after ≈ are worked out from the molar mass of the structure shown.

Assays:
Rat sEH = target: T1, Rat sEH (Rattus norvegicus, UniProt P80299); assay: sEH fluorescent-based inhibition assay; type: biochemical
T1 sequence (P80299 1-554): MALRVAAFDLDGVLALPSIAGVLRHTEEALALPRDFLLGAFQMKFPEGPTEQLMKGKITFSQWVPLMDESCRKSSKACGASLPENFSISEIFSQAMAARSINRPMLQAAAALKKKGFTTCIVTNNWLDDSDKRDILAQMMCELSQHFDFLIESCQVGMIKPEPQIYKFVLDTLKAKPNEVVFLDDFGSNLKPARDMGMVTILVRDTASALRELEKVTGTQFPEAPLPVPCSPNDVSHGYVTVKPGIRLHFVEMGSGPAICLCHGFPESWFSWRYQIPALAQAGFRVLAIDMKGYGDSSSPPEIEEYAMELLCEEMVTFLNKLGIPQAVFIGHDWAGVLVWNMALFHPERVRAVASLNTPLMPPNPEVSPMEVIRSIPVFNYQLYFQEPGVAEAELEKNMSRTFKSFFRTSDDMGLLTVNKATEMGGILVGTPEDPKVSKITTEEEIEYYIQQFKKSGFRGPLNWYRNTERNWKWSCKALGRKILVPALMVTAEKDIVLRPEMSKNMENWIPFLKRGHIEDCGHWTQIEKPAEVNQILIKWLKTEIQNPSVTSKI

Human sEH = target: T2, Human sEH (Homo sapiens, UniProt P34913); assay: sEH fluorescent-based inhibition assay; type: biochemical
T2 sequence (P34913 1-555): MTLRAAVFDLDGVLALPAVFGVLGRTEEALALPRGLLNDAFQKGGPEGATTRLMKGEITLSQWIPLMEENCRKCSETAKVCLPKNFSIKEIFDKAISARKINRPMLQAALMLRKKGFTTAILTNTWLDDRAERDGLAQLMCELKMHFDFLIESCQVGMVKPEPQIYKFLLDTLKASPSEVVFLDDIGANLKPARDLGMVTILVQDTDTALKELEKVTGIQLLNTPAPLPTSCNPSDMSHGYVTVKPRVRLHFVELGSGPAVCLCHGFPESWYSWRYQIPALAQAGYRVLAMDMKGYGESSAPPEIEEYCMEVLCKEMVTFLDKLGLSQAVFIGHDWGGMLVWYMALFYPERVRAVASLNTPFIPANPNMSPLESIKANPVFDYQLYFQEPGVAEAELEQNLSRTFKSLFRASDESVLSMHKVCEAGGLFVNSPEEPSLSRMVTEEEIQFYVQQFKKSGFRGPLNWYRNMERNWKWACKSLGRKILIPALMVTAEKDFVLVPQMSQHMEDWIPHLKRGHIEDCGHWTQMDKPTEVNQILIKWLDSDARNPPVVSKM

physchem = details: sodium phosphate buffer, 24 °C, pH 7.4, aqueous buffer, kinetic from dmso stock
Mouse sEH = target: T3, Mouse sEH (Mus musculus, UniProt P34914); assay: sEH fluorescent-based inhibition assay; type: biochemical
T3 sequence (P34914 1-554): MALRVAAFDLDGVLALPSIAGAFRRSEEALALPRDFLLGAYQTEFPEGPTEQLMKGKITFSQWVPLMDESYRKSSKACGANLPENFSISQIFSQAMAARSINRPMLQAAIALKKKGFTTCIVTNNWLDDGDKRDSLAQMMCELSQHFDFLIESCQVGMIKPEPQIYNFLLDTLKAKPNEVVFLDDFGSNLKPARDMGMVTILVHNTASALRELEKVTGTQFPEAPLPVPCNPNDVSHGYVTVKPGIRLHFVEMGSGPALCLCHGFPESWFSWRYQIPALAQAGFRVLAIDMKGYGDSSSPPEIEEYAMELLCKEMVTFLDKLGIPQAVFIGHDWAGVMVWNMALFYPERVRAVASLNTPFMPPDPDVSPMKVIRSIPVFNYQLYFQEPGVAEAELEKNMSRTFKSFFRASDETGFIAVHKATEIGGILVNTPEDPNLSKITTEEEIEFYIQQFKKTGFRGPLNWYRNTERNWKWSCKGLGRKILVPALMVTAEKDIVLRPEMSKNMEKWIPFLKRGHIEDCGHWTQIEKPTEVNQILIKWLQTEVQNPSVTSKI

[1] = test system: temporomandibular joint (TMJ); details: local administration; cited from earlier work
rats = details: 1 mg/kg; cited from earlier work

O=C(Nc1ccc(-c2nccc3ccccc23)cc1)C1CCN(S(=O)(=O)c2ccccc2Cl)CC1 [Compound 4a, 1-((2-chlorophenyl)sulfonyl)-N-(4-(isoquinolin-1-yl)phenyl)piperidine-4-carboxamide]
pIC50 (Rat sEH): 8.43
pIC50 (Human sEH): 8.43
solubility (physchem): 56 µM (≈ 28.3 µg/mL)
pIC50 (Mouse sEH): 6.55

O=C(Nc1ccc(-c2cc3ccccc3cn2)cc1)C1CCN(S(=O)(=O)c2ccccc2Cl)CC1 [Compound 4b, 1-((2-chlorophenyl)sulfonyl)-N-(4-(isoquinolin-3-yl)phenyl)piperidine-4-carboxamide]
pIC50 (Rat sEH): 7.94
pIC50 (Human sEH): 7.73
solubility (physchem): 51.6 µM (≈ 26.1 µg/mL)
pIC50 (Mouse sEH): 6.63

O=C(Nc1ccc(-c2cncc3ccccc23)cc1)C1CCN(S(=O)(=O)c2ccccc2Cl)CC1 [Compound 4c, 1-((2-chlorophenyl)sulfonyl)-N-(4-(isoquinolin-4-yl)phenyl)piperidine-4-carboxamide]
pIC50 (Rat sEH): 9.10
pIC50 (Human sEH): 9.40
solubility (physchem): 49.2 µM (≈ 24.9 µg/mL)
pIC50 (Mouse sEH): 7.65

O=C(Nc1ccc(-c2cccc3cnccc23)cc1)C1CCN(S(=O)(=O)c2ccccc2Cl)CC1 [Compound 4d, 1-((2-chlorophenyl)sulfonyl)-N-(4-(isoquinolin-5-yl)phenyl)piperidine-4-carboxamide]
pIC50 (Rat sEH): 8.66
pIC50 (Human sEH): 9.40
solubility (physchem): 40 µM (≈ 20.3 µg/mL)
pIC50 (Mouse sEH): 7.51

O=C(Nc1ccc(-c2ccc3cnccc3c2)cc1)C1CCN(S(=O)(=O)c2ccccc2Cl)CC1 [Compound 4e, 1-((2-chlorophenyl)sulfonyl)-N-(4-(isoquinolin-6-yl)phenyl)piperidine-4-carboxamide]
pIC50 (Rat sEH): 9.30
pIC50 (Human sEH): 8.74
solubility (physchem): 55.8 µM (≈ 28.2 µg/mL)
pIC50 (Mouse sEH): 7.29

O=C(Nc1ccc(-c2cccc3ccncc23)cc1)C1CCN(S(=O)(=O)c2ccccc2Cl)CC1 [Compound 4g, 1-((2-chlorophenyl)sulfonyl)-N-(4-(isoquinolin-8-yl)phenyl)piperidine-4-carboxamide]
pIC50 (Rat sEH): 8.33
pIC50 (Human sEH): 8.85
solubility (physchem): 65.6 µM (≈ 33.2 µg/mL)
pIC50 (Mouse sEH): 7.16

O=C(Nc1ccc(-c2ccccn2)cc1)C1CCN(S(=O)(=O)c2ccccc2Cl)CC1 [Compound 4h, 1-((2-chlorophenyl)sulfonyl)-N-(4-(pyridin-2-yl)phenyl)piperidine-4-carboxamide]
pIC50 (Rat sEH): 8.72
solubility (physchem): 66.7 µM (≈ 30.4 µg/mL)
pIC50 (Mouse sEH): 6.73

O=C(Nc1ccc(-c2cccnc2)cc1)C1CCN(S(=O)(=O)c2ccccc2Cl)CC1 [Compound 4i, 1-((2-chlorophenyl)sulfonyl)-N-(4-(pyridin-3-yl)phenyl)piperidine-4-carboxamide]
pIC50 (Rat sEH): 8.55
pIC50 (Human sEH): 8.89
solubility (physchem): 51.1 µM (≈ 23.3 µg/mL)
pIC50 (Mouse sEH): 6.90

O=C(Nc1ccc(-c2ccncc2)cc1)C1CCN(S(=O)(=O)c2ccccc2Cl)CC1 [Compound 4j, 1-((2-chlorophenyl)sulfonyl)-N-(4-(pyridin-4-yl)phenyl)piperidine-4-carboxamide]
pIC50 (Rat sEH): 8.51
pIC50 (Human sEH): 8.74
solubility (physchem): 50.9 µM (≈ 23.2 µg/mL)
pIC50 (Mouse sEH): 6.88

Cc1cccc(-c2ccc(NC(=O)C3CCN(S(=O)(=O)c4ccccc4Cl)CC3)cc2)n1 [Compound 4k, 1-((2-chlorophenyl)sulfonyl)-N-(4-(6-methylpyridin-2-yl)phenyl)piperidine-4-carboxamide]
pIC50 (Rat sEH): 8.80
pIC50 (Human sEH): 8.33
solubility (physchem): 43.4 µM (≈ 20.4 µg/mL)
pIC50 (Mouse sEH): 6.65

Cc1ccnc(-c2ccc(NC(=O)C3CCN(S(=O)(=O)c4ccccc4Cl)CC3)cc2)c1 [Compound 4l, 1-((2-chlorophenyl)sulfonyl)-N-(4-(4-methylpyridin-2-yl)phenyl)piperidine-4-carboxamide]
pIC50 (Rat sEH): 7.99
pIC50 (Human sEH): 8.29
solubility (physchem): 36.4 µM (≈ 17.1 µg/mL)
pIC50 (Mouse sEH): 6.30

Cc1cncc(-c2ccc(NC(=O)C3CCN(S(=O)(=O)c4ccccc4Cl)CC3)cc2)c1 [Compound 4m, 1-((2-chlorophenyl)sulfonyl)-N-(4-(5-methylpyridin-3-yl)phenyl)piperidine-4-carboxamide]
pIC50 (Rat sEH): 8.96
pIC50 (Human sEH): 8.59
solubility (physchem): 49.4 µM (≈ 23.2 µg/mL)
pIC50 (Mouse sEH): 6.76

Cc1cc(-c2ccc(NC(=O)C3CCN(S(=O)(=O)c4ccccc4Cl)CC3)cc2)ccn1 [Compound 4n, 1-((2-chlorophenyl)sulfonyl)-N-(4-(2-methylpyridin-4-yl)phenyl)piperidine-4-carboxamide]
pIC50 (Rat sEH): 8.44
pIC50 (Human sEH): 8.24
solubility (physchem): 53 µM (≈ 24.9 µg/mL)
pIC50 (Mouse sEH): 6.59

CCC(=O)N1CCC(NC(=O)Nc2ccc(OC(F)(F)F)cc2)CC1 [TPPU]
Effect on formalin-induced hyperalgesia within the temporomandibular joint [1]: prevented formalin-induced hyperalgesia

NC(=O)c1cccc(-c2cc(OC(=O)NC3CCCCC3)ccc2O)c1 [URB937]
Effect on NTG-induced trigeminal hyperalgesia (rats): reversed NTG-induced trigeminal hyperalgesia
